Each block holds one compound with its values, some of them ahead of it.
Assays:
ErbB2 = biological target: T1, ErbB2 (Homo sapiens, UniProt P04626); test: Western blotting of ErbB2 autophosphorylation in starved/heregulin pulsed hESCs; format: cell-based; conditions: starved/heregulin pulsed hESCs growing in DC-HAIF
T1 construct: endogenous in cells; host or cells: human embryonic stem cells (hESCs) grown in DC-HAIF
Description: (§1) Colony and cell-counting assays confirmed that LongR3-IGF1 and HRG played the major roles in self-renewal and proliferation in the context of one of the embodiments of the present invention (FIGS. 6D, 6E). Phosphorylation of IGF1R, IR, FGF2a, ErbB2, and ErbB3 was also observed in both steady-state DC-HAIF cultures, and in starved cultures that were pulsed with DC-HAIF (FIG. 6F).

BG02 hESCs = test: Proliferation of hESCs growing in conditioned medium with AG825; format: cell-based, human; conditions: 50 μM (FIG. 6A)
Description: as §1

R1 mouse ES cells = test: Proliferation of R1 mouse ES cells with ErbB tyrosine kinase inhibitors, alkaline phosphatase staining; format: cell-based
Protocol: AG1478 and AG879 were used to examine the role of HRG/ErbB signaling in mouse ES cells. R1 mouse ES cells were maintained in standard conditions in DMEM, 10% FBS, 10% KSR, 0.5 U/ml penicillin, 0.5 U/ml streptomycin, 1×NEAA, 1 mM sodium pyruvate, 1000 U/ml LIF (ESGRO), 0.1 mM 13-ME, and were passaged with 0.5% trypsin/EDTA. 2×10^5 cells/well were plated in 6 well trays on […]™ diluted at 1:1000. The day after plating, DMSO (carrier control), 1-50 μM AG1478, or 1-50 μM AG879 was added with fresh medium. The cells were cultured an additional 8 days, with daily media changes. The cultures were then fixed and stained for alkaline phosphatase activity.

BG01v cells = test: Proliferation of BG01v cells with ErbB tyrosine kinase inhibitors, alkaline phosphatase staining; format: cell-based; conditions: 5 days
Protocol: To examine the effect of known inhibitors of ErbB tyrosine kinases in hESCs, BG01 v cells were plated in 6 well trays on […]™ diluted at 1:1000, in defined culture medium (DC) containing 100 ng/ml LongR3-IGF1, 8 ng/ml FGF2 and 1 ng/ml Activin A. On the next day, DMSO (carrier control), 50 nM-20 μM AG1478 (an ErbB1 inhibitor), or 100 nM-20 μM AG879 (an ErbB2 inhibitor) was added with fresh medium. The cells were cultured for an additional 5 days, with daily media changes. The cultures were then fixed and stained for alkaline phosphatase activity.

ES cells = test: Suspension cultures in various media, cell counting; format: cell-based; conditions: added to HAIF, HAI and HI conditions
Protocol: To determine if suspensions of ES cells could be cultured in the absence of FGF2 and/or Activin A, ES cells were cultured in a variety of media, with and without these factors. […] In addition, the cells in each media were successfully passaged with no morphological signs of differentiation.

BG02 cells = test: Suspension culture of BG02 cells with and without apoptosis inhibitor, cell counting; format: cell-based, human
Protocol: Starting cultures of BG02 cells were maintained in DC-HAIF medium on dishes coated with 1:200 matrigel, as described herein and were split by passaging with ACCUTASE™. To initiate suspension culture, BG02 cells were disaggregated with ACCUTASE™ and placed in low attachment 6-well trays at a density of 1.6, 3, or 6×10^5 cells/ml (0.5, 1, or 2×10^6 cells in 3 ml volumes) in DC-HAIF medium. The trays were placed on a rotating platform at 80-100 rpm in a humidified incubator with 5% CO2. Under these conditions hESCs coalesced into small spheres of morphologically viable cells within 24 hours.
To attenuate the loss of cells after initial passaging in suspension, an inhibitor of apoptosis was added to the medium. Cells were passaged as in Example 12, except that Y-27632, an inhibitor of p160-Rho-associated coiled-coil kinase (ROCK), was added to the medium.
Suspension aggregates of BG02 cells were formed by seeding 2×10^6 single cells in 6-well dishes in 3 ml DC-HAIF medium, at 100 rpm on a rotating platform in an incubator (Table 2, Experiment A). 10 μM Y27632 ROCK inhibitor was added to test wells for the course of the experiment and the cultures observed daily and counted after 24 hours (day 1) and after 4 or 5 days. […] Cell counting confirmed that more viable cells were present in the presence of inhibitor (Table 2, Experiment A). This difference in cell number persisted throughout the course of the culture period, with more cells also observed on day 4, compared to cultures without inhibitor. As with previous suspension culture experiments, cells exposed to Y27632 could also be serially passaged, and maintained in an undifferentiated state (not shown).
As previous experiments had shown that growth rates of cells in suspension and adherent culture were similar after the initial 24 hours, an experiment was performed where Y27632 was removed after this initial period (Table 2, Experiment B). […] 1.4×10^7 (+Y27632) and 1.8×10^7 (+/−Y27632) viable cells were generated when inhibitor was present compared to 3.9×10^6 cells in untreated cultures. This analysis confirmed that Y27632 had the largest impact during the first 24 hours of suspension hESC culture.
Because of the enhanced survival and aggregation observed in the presence of Y27632, an experiment was performed to examine if it was possible to reduce the number of cells used to seed suspension cultures (Table 2, Experiment C). […] To determine if addition of a ROCK inhibitor would allow cell seeding at lower densities, a range of cell concentrations (from about 2×10^6 total cells down to about 1×10^5 total cells was used to seed suspension cultures in 6-well trays cells in 3 ml DC-HAIF. 10 μM Y27632 was added to all conditions, and the cell number and viability assessed on day 5. Successful aggregation and expansion was observed even at low seeding densities. An approxiate 13 fold expansion of viable cells was observed even cultures that were only seeded with 1×10^5 cells. Inhibition of ROCK with Y27632 therefore facilitated initial survival of hESCs at much lower densities in this suspension system.

hESCs = test: Titration of insulin and IGF1 at physiological levels, hESC proliferation; format: cell-based, human; conditions: titrated from about 0.2 to about 200 ng/ml, cells counted after 5 days
Protocol: Essentially all of the reported culture conditions for hESCs to date include supraphysiological levels of insulin, which can stimulate both IR and IGF1R. To distinguish the activities that insulin and insulin-substitutes exert, compared to IGF1, hESCs are cultured in defined media conditions in physiological levels of these growth factors. The concentrations of insulin and IGF1 are titrated from about 0.2 to about 200 ng/ml and cell proliferation is monitored by counting cells after 5 days. Cultures that expand successfully are serially passaged 5 times.

[1] = Expt. A, seeding 2 × 10^6, p0, day 1
[2] = Expt. A, seeding 2 × 10^6, p0, day 4
[3] = Expt. B, seeding 2 × 10^6, p0, day 1
[4] = Expt. B, seeding 2 × 10^6, p0, day 5
[5] = Expt. B, seeding 2 × 10^6, p0, day 5, Y27632 removed after 24 hours
[6] = Expt. C, seeding 1 × 10^6, p0, day 1
[7] = Expt. C, seeding 1 × 10^6, p0, day 5
[8] = Expt. C, seeding 2 × 10^6, p0, day 1
[9] = Expt. C, seeding 2 × 10^6, p0, day 5
[10] = Expt. C, seeding 2.5 × 10^5, p0, day 1
[11] = Expt. C, seeding 2.5 × 10^5, p0, day 5
[12] = Expt. C, seeding 5 × 10^5, p0, day 1
[13] = Expt. C, seeding 5 × 10^5, p0, day 5
[14] = Expt. C, seeding 10^5, p0, day 1
[15] = Expt. C, seeding 10^5, p0, day 5

T1 sequence (P04626 23-1255): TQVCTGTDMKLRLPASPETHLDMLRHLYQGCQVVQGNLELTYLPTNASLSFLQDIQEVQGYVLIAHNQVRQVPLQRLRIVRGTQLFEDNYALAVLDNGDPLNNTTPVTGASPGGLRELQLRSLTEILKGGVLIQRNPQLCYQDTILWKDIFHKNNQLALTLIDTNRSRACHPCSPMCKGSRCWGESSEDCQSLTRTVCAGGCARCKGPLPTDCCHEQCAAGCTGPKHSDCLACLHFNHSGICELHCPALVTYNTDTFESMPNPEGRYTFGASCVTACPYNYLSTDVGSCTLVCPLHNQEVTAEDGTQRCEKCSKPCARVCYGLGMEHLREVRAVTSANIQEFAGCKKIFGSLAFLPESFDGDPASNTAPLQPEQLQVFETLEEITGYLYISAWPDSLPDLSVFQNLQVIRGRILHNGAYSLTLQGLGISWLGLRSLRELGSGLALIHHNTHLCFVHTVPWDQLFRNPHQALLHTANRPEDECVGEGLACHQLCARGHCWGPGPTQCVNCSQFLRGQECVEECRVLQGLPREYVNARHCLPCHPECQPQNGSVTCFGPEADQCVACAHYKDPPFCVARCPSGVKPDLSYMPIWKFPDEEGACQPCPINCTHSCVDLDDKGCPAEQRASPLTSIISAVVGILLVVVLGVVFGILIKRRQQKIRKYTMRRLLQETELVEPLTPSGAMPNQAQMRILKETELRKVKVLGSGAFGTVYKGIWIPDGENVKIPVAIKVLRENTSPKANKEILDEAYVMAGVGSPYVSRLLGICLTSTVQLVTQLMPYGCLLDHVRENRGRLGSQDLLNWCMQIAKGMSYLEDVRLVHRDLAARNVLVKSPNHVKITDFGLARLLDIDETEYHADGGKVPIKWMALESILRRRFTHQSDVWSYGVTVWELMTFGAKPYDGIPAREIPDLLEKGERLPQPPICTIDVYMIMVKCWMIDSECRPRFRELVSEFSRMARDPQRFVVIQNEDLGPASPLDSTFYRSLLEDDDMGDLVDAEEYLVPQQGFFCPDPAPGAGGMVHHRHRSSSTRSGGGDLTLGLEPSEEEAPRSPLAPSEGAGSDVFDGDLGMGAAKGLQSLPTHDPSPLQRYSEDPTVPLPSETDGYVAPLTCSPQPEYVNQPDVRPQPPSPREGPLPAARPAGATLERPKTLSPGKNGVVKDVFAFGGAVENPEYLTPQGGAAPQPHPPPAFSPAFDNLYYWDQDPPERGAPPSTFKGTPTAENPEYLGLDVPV

- autophosphorylation of ErbB2 at tyrosine-1248 (ErbB2): inhibited autophosphorylation
Compound: COc1cc(/C=C(\C#N)C(N)=O)cc(CSc2nc3ccccc3s2)c1O [AG825]
- effect on proliferation of hESCs growing in conditioned medium (CM) (BG02 hESCs): significantly inhibited proliferation

Compound: CC(C)(C)c1cc(/C=C(\C#N)C(N)=S)cc(C(C)(C)C)c1O [AG879]
- effect on proliferation (R1 mouse ES cells; 20 μM, 8 days): may have slowed proliferation
- effect on cell growth (R1 mouse ES cells; 50 μM, 8 days): substantially inhibited cell growth
- concentration required to inhibit proliferation, mESCs relative to BG01v cells (R1 mouse ES cells; higher for mESCs than for BG01v cells in defined conditions): ~10 ×
- effect on cell growth (BG01v cells; 5 μM): substantially inhibited cell growth
- cell death (BG01v cells; 20 μM): caused cell death

Compound: COc1cc2ncnc(Nc3cccc(Cl)c3)c2cc1OC [AG1478]
- effect on cell proliferation (R1 mouse ES cells; 1-50 μM, 8 days, 10% FBS, 10% KSR, LIF): no apparent affect on cell proliferation
- effect on cell proliferation (BG01v cells; 50 nM-20 μM, DC medium with LongR3-IGF1, FGF2, Activin A): neither DMSO nor AG1478 (50 nM-20 μM) had an apparent affect on cell proliferation

Compound: C[C@@H](N)[C@H]1CC[C@H](C(=O)Nc2ccncc2)CC1 [Y27632]
- yield of cells generated by day 5 (ES cells): increased the yield of cells
- size of aggregates in initial aggregation phase of suspension culture (BG02 cells; 10 μM, compared to medium without inhibitor): much larger aggregates were formed
- initial survival and aggregation of hESCs after initial passage (BG02 cells; 10 μM, first 24 hours): enhanced initial survival and aggregation of hESCs
- cells observed when the aggregates were split again (BG02 cells; Expt. A, 10 μM, versus without inhibitor): almost twice as many cells
- Cell counts: total (BG02 cells; Expt. A, p1, day 4): 4.6 × 10^6 cells
- Cell counts: viable (BG02 cells; Expt. A, p1, day 4): 4.2 × 10^6 cells
- viable cells, % (BG02 cells; Expt. A, p1, day 4): 91%
- Cell counts: total (BG02 cells; [1]): 1.6 × 10^6 cells
- Cell counts: viable (BG02 cells; [1]): 1.2 × 10^6 cells
- viable cells, % (BG02 cells; [1]): 74%
- Cell counts: total (BG02 cells; [2]): 7.8 × 10^6 cells
- Cell counts: viable (BG02 cells; [2]): 7.1 × 10^6 cells
- viable cells, % (BG02 cells; [2]): 91%
- Cell counts: total (BG02 cells; [3]): 1.9 × 10^6 cells
- Cell counts: viable (BG02 cells; [3]): 1.4 × 10^6 cells
- viable cells, % (BG02 cells; [3]): 73%
- Cell counts: total (BG02 cells; [4]): 1.5 × 10^7 cells
- Cell counts: viable (BG02 cells; [4]): 1.4×10^7 cells
- viable cells, % (BG02 cells; [4]): 92%
- Cell counts: total (BG02 cells; [5]): 1.9 × 10^7 cells
- Cell counts: viable (BG02 cells; [5]): 1.8×10^7 cells
- viable cells, % (BG02 cells; [5]): 96%
- Cell counts: total (BG02 cells; [6]): 8.7 × 10^5 cells
- Cell counts: viable (BG02 cells; [6]): 6.6 × 10^5 cells
- viable cells, % (BG02 cells; [6]): 76%
- Cell counts: total (BG02 cells; [7]): 8.6 × 10^6 cells
- Cell counts: viable (BG02 cells; [7]): 7.8 × 10^6 cells
- viable cells, % (BG02 cells; [7]): 91%
- Cell counts: total (BG02 cells; [8]): 1.9 × 10^6 cells
- Cell counts: viable (BG02 cells; [8]): 1.6 × 10^6 cells
- viable cells, % (BG02 cells; [8]): 84%
- Cell counts: total (BG02 cells; [9]): 1.4 × 10^7 cells
- Cell counts: viable (BG02 cells; [9]): 1.2 × 10^7 cells
- viable cells, % (BG02 cells; [9]): 90%
- Cell counts: total (BG02 cells; [10]): 2.6 × 10^5 cells
- Cell counts: viable (BG02 cells; [10]): 2.3 × 10^5 cells
- viable cells, % (BG02 cells; [10]): 91%
- Cell counts: total (BG02 cells; [11]): 2.7 × 10^6 cells
- Cell counts: viable (BG02 cells; [11]): 2.5 × 10^6 cells
- viable cells, % (BG02 cells; [11]): 91%
- Cell counts: total (BG02 cells; [12]): 4.6 × 10^5 cells
- Cell counts: viable (BG02 cells; [12]): 3.5 × 10^5 cells
- viable cells, % (BG02 cells; [12]): 75%
- Cell counts: total (BG02 cells; [13]): 5.7 × 10^6 cells
- Cell counts: viable (BG02 cells; [13]): 5.3 × 10^6 cells
- viable cells, % (BG02 cells; [13]): 93%
- Cell counts: total (BG02 cells; [14]): 6.8 × 10^4 cells
- Cell counts: viable (BG02 cells; [14]): 5.4 × 10^4 cells
- viable cells, % (BG02 cells; [14]): 79%
- Cell counts: total (BG02 cells; [15]): 1.4 × 10^6 cells
- Cell counts: viable (BG02 cells; [15]): 1.3 × 10^6 cells
- viable cells, % (BG02 cells; [15]): 92%
- expansion of viable cells (BG02 cells; seeded with 1×10^5 cells, 10 μM Y27632, day 5): ~13 fold

Compound: IGF1: insulin-like growth factor
- expansion of hESC cultures at physiological levels (hESCs): support the expansion of hESC cultures

Compound: insulin: protein that binds to the insulin receptor
- expansion of hESC cultures at physiological levels (hESCs): do not
